Measurements as given in patent US20250042886A1, “BIS(HETERO)ARYL THIOETHER OXADIAZINES AS FUNGICIDAL COMPOUNDS” (Bayer Aktiengesellschaft, priority 2021, published 2025).

What was measured:
[1] = Measurement of Log P values by HPLC on reversed phase columns (EEC directive 79/831 Annex V.A8); format: physicochemical; details: Table 1, compounds of formula (I); method [a]: LC-UV, acidic range, 0.1% formic acid in water and acetonitrile
[2] = test system: Colletotrichum lindemuthianum; test: Colletotrichum lindemuthianum in vitro cell test; format: cell-based; details: 144 h, liquid culture, 6 days incubation, read-out: efficacy (inhibition of fungal growth); for inhibition at 50 µM: 50 μMol/l of active ingredient; for inhibition at 20 ppm: 20 ppm of active ingredient
Description: (§1) B-7. Colletotrichum lindemuthianum In Vitro Cell Test • Solvent: DMSO • Culture medium: 14.6 g anhydrous D-glucose (VWR), 7.1 g Mycological Peptone (Oxoid), 1.4 g granulated Yeast Extract (Merck), QSP 1 liter • Inoculum: spores suspension Fungicides were solubilized in DMSO and the solution used to prepare the required range of concentrations. […] A spore suspension of C. lindemuthianum was prepared and diluted to the desired spore density. Fungicides were evaluated for their ability to inhibit spores germination and mycelium growth in liquid culture assay. The compounds were added in the desired concentration to the culture medium with spores. After 6 days incubation, fungi-toxicity of compounds was determined by spectrometric measurement of mycelium growth. Inhibition of fungal growth was determined by comparing the absorbance values in wells containing the fungicides with the absorbance in control wells without fungicides.

Botrytis cinerea [3] = test: Botrytis cinerea in vitro cell test; format: cell-based; details: 144 h, liquid culture, 6 days incubation, read-out: efficacy (inhibition of fungal growth); for inhibition at 50 µM: 50 μMol/l of active ingredient
Description: B-9. Botrytis cinerea In Vitro Cell Test • Solvent: DMSO • Culture medium: 1 g KH2PO4 (VWR), 1 g K2HPO4 (VWR), 0.5 g Urea (VWR), 3 g KNO3 (Prolabo), 10 g saccharose (VWR), 0.5 g MgSO4, 7H2O (Sigma), 0.07 g CaCl2, 2H2O (Prolabo), 0.2 mg MnSO4, H2O (Sigma), 0.6 mg CuSO4, 5H2O (Sigma), 7.9 mg ZnSO4, 7H2O (Sigma), 0.1 mg H3BO3 (Merck), 0.14 mg NaMoO4, 2H2O (Sigma), 2 mg thiamine (Sigma), 0.1 mg biotine (VWR), 4 mg FeSO4, 7H2O (Sigma), QSP 1 liter • Inoculum: spore suspension Fungicides were solubilized in DMSO and the solution used to prepare the required range of concentrations. […] A spore suspension of B. cinerea was prepared and diluted to the desired spore density. Fungicides were evaluated for their ability to inhibit spore germination and mycelium growth in liquid culture assay. The compounds were added in the desired concentration to the culture medium with spores. After 6 days incubation, fungi-toxicity of compounds was determined by spectrometric measurement of mycelium growth. Inhibition of fungal growth was determined by comparing the absorbance values in wells containing the fungicides with the absorbance in control wells without fungicides.

Botrytis cinerea [4] = test: In vivo preventive test on Botrytis cinerea (grey mould); details: 500 ppm of active ingredient, sprayed on young gherkin or cabbage plants 24 h before inoculation, evaluated 4 to 5 days after inoculation, read-out: efficacy
Description: The active ingredients were made soluble and homogenized in a mixture of Dimethyl sulfoxide/Acetone//Tween® 80 and then diluted in water to the desired concentration. The young plants of gherkin or cabbage were treated by spraying the active ingredient prepared as described above. Control plants were treated only with an aqueous solution of Acetone/Dimethyl sulfoxide/Tween® 80. After 24 hours, the plants were contaminated by spraying the leaves with an aqueous suspension of Botrytis cinerea spores.

Pyricularia oryzae = test: microbe, parasite or virus in culture; format: cell-based; details: 120 h, read-out: efficacy (inhibition of fungal growth), 20 ppm of active ingredient, liquid culture, 5 days incubation
Pyrenophora teres = Pyrenophora teres in vitro cell test; format: cell-based; details: 144 h, 20 ppm of active ingredient, liquid culture, 6 days incubation, read-out: efficacy (inhibition of fungal growth)
Description: as §1, with “B-8. Pyrenophora teres In” for “B-7. Colletotrichum lindemuthianum In”, “Inoculum: spore” for “Inoculum: spores”, “of P. teres” for “of C. lindemuthianum”, “inhibit spore” for “inhibit spores”

Fusarium culmorum = Fusarium culmorum in vitro cell test; format: cell-based; details: 120 h, 50 μMol/l of active ingredient, liquid culture, 5 days incubation, read-out: efficacy (inhibition of fungal growth)
Description: B-10. Fusarium culmorum In Vitro Cell Test • Solvent: DMSO • Culture medium: 1 g KH2PO4 (VWR), 1 g K2HPO4 (VWR), 0.5 g Urea (VWR), 3 g KNO3 (Prolabo), 10 g saccharose (VWR), 0.5 g MgSO4, 7H2O (Sigma), 0.07 g CaCl2, 2H2O (Prolabo), 0.2 mg MnSO4, H2O (Sigma), 0.6 mg CuSO4, 5H2O (Sigma), 7.9 mg ZnSO4, 7H2O (Sigma), 0.1 mg H3BO3 (Merck), 0.14 mg NaMoO4, 2H2O (Sigma), 2 mg thiamine (Sigma), 0.1 mg biotine (VWR), 4 mg FeSO4, 7H2O (Sigma), QSP 1 liter • Inoculum: spores suspension
Fungicides were solubilized in DMSO and the solution used to prepare the required range of concentrations. The final concentration of DMSO used in the assay was ≤1%.
A spore suspension of F. culmorum was prepared and diluted to the desired spore density.
Fungicides were evaluated for their ability to inhibit spore germination and mycelium growth in liquid culture assay. The compounds were added in the desired concentration to the culture medium with spores. After 5 days incubation, fungi-toxicity of compounds was determined by spectrometric measurement of mycelium growth. Inhibition of fungal growth was determined by comparing the absorbance values in wells containing the fungicides with the absorbance in control wells without fungicides.

Row | Structure (SMILES) | chromatographic logP [1] | inhibition at 50 µM [2] [%] | inhibition at 50 µM (Botrytis cinerea [3]) [%] | pest or weed control at 500 ppm (Botrytis cinerea [4]) [%] | also measured
1 | Cc1ccc(Sc2nnc(C)c(C)c2C2=NOC[C@@H](c3ccc(C)s3)N2)c(C)c1 (racemic) [Compound I-126] | 3.28 | 70 to 79 |  |  | 
2 | COc1cccc(Sc2nnc(C)c(C)c2C2=NOC[C@@H](c3ccc(C)s3)N2)c1 (racemic) [Compound I-084] | 2.77 | 90 to 100 | 70 to 79 |  | 
3 | Cc1ccc([C@@H]2CON=C(c3c(Sc4cccc(OC(F)(F)F)c4)nnc(C)c3C)N2)s1 (racemic) [Compound I-055] | 3.48 | 90 to 100 | 80 to 89 | 70 to 79 | 
4 | Cc1cccc(Sc2nnc(Cl)cc2C2=NOC[C@@H](Cc3ccc(Cl)cc3Cl)N2)c1 (racemic) [Compound I-028] |  |  |  |  | LogP [1]: 4.56^[a]; inhibition at 20 ppm (Pyricularia oryzae): 70 to 79%; inhibition at 20 ppm [2]: 80 to 89%; inhibition at 20 ppm (Pyrenophora teres): 90 to 100%
5 | CCOc1cccc(Sc2nnc3ccccc3c2C2=NOC[C@H](c3ccc(C)s3)N2)c1 (racemic) [Compound I-040] | 3.55 | 90 to 100 | 70 to 79 |  | inhibition at 50 µM (Fusarium culmorum): 80 to 89%
6 | Cc1ccc([C@H]2CON=C(c3c(Sc4ccc(Cl)c(Cl)c4)nnc4ccccc34)N2)s1 (racemic) [Compound I-038] | 4.04 |  | 90 to 100 | 70 to 79 | 
7 | Cc1ccc(Sc2nnc(C)c(C)c2C2=NOC[C@@H](c3cc(C)sc3C)N2)cc1 (racemic) [Compound I-099] | 3.36 | 70 to 79 | 80 to 89 | 70 to 79 | 
8 | CCOc1cccc(Sc2nnc(C)c(C)c2C2=NOC[C@@H](c3ccc(C)s3)N2)c1 (racemic) [Compound I-074] | 3.09 | 90 to 100 |  |  | 
9 | Cc1ccc([C@H]2CON=C(c3c(Sc4ccc(F)cc4F)nnc4ccccc34)N2)s1 (racemic) [Compound I-048] | 3.4 |  | 90 to 100 | 90 to 100 | 
10 | COc1cccc(Sc2cnc(Cl)cc2C2=NOC[C@H](Cc3ccc(Cl)cc3Cl)N2)c1 (racemic) [Compound I-002] | 4.51 |  |  |  | inhibition at 20 ppm (Pyricularia oryzae): 70 to 79%; inhibition at 20 ppm [2]: 90 to 100%; inhibition at 20 ppm (Botrytis cinerea [3]; 20 ppm of active ingredient): 90 to 100%
11 | Cc1cc([C@@H]2CON=C(c3c(Sc4cccc(OC(F)(F)F)c4)nnc(C)c3C)N2)c(C)s1 (racemic) [Compound I-047] | 3.83 | 90 to 100 |  |  | 
12 | Cc1ccc(CC2CON=C(c3cc(Cl)nnc3S(=O)(=O)c3cccc(C(F)(F)F)c3)N2)c(C)c1 (racemic) [Compound I-001, (5RS)-3-(6-chloro-3-{[3-(trifluoromethyl)phenyl]sulfonyl}pyridazin-4-yl)-5-(2,4-dimethylbenzyl)-5,6-dihydro-4H-1,2,4-oxadiazine] | 4.24 |  |  |  | inhibition at 20 ppm (Pyricularia oryzae): 90 to 100%
13 | CCOc1cccc(Sc2nnc(C)c(C)c2C2=NOC[C@@H](c3cc(C)sc3C)N2)c1 (racemic) [Compound I-046] | 3.44 | 80 to 89 |  |  | 
